Experimental data published in ChEMBL document CHEMBL5724914, “Linking interpersonal differences in gut microbiota composition and drug biotransformation activity” (2024).

Experiments:
[1] = human gut metagenome, 24 h, 2 µM
[2] = human gut metagenome, 24 h, 2 µM; remark: listed apart in the source
[3] = human gut metagenome, 24 h, 2 µM; remark: listed apart in the source
[4] = human gut metagenome, 24 h, 2 µM; remark: listed apart in the source
[5] = (§1) The drug is tested on WLS-007 corresponding to human gut metagenome with ENA study accession number: PRJEB37062 and ENA sample accession number: ERS12561742 for biotransformation under anaerobic condition. The drug concentrations were measured over 9 timepoints collected between 0 and 24 hours of incubation by liquid-chromatography-coupled mass spectrometry (LC–MS); settings: 2 µM
[6] = as §1, with “Z-021” for “WLS-007”, “to” for “to human gut”, “ERS12561820” for “ERS12561742”; settings: 2 µM
[7] = human gut metagenome, 24 h, 2 µM; remark: listed apart in the source
[8] = human gut metagenome, 24 h, 2 µM; remark: listed apart in the source
[9] = as §1, with “Z-022” for “WLS-007”, “mouse” for “human”, “ERS12561821” for “ERS12561742”; settings: 2 µM
[10] = as §1, with “Z-025” for “WLS-007”, “rabbit” for “human”, “ERS12561824” for “ERS12561742”; settings: 2 µM
[11] = human gut metagenome, 24 h, 2 µM; remark: listed apart in the source
[12] = as §1, with “Z-026” for “WLS-007”, “to” for “to human gut”, “ERS12561825” for “ERS12561742”; settings: 2 µM
[13] = human gut metagenome, 24 h, 2 µM; remark: listed apart in the source
[14] = human gut metagenome, 24 h, 2 µM; remark: listed apart in the source
[15] = as §1, with “Z-001” for “WLS-007”, “mouse” for “human”, “ERS12561801” for “ERS12561742”; settings: 2 µM
[16] = as §1, with “WLS-170” for “WLS-007”, “ERS12561762” for “ERS12561742”; settings: 2 µM
[17] = as §1, with “Z-014” for “WLS-007”, “rat” for “human”, “ERS12561814” for “ERS12561742”; settings: 2 µM
[18] = as §1, with “WLS-027” for “WLS-007”, “ERS12561744” for “ERS12561742”; settings: 2 µM
[19] = as §1, with “Z-020” for “WLS-007”, “rabbit” for “human”, “ERS12561819” for “ERS12561742”; settings: 2 µM
[20] = as §1, with “Z-004” for “WLS-007”, “to” for “to human gut”, “ERS12561804” for “ERS12561742”; settings: 2 µM
Further: call rule not given here.

SMILES	Bacterial Biotransformation [1]	Bacterial Biotransformation [2]	Bacterial Biotransformation [3]	Bacterial Biotransformation [4]	Bacterial Biotransformation [5]	Bacterial Biotransformation [6]	Bacterial Biotransformation [7]	Bacterial Biotransformation [8]	Bacterial Biotransformation [9]	Bacterial Biotransformation [10]	Bacterial Biotransformation [11]	Bacterial Biotransformation [12]	Bacterial Biotransformation [13]	Bacterial Biotransformation [14]	Bacterial Biotransformation [15]	Bacterial Biotransformation [16]	Bacterial Biotransformation [17]	Bacterial Biotransformation [18]	Bacterial Biotransformation [19]	Bacterial Biotransformation [20]
CN1CCc2cccc3c2[C@H]1Cc1ccc(O)c(O)c1-3 [APOMORPHINE]	Compound NOT metabolized	Compound NOT metabolized	Compound NOT metabolized	Compound NOT metabolized	Compound NOT metabolized	Compound NOT metabolized	Compound NOT metabolized	Compound NOT metabolized	Compound NOT metabolized	Compound metabolized	Compound NOT metabolized	Compound NOT metabolized	Compound NOT metabolized	Compound NOT metabolized	Compound NOT metabolized	Compound NOT metabolized	–	–	–	–
C[C@@H]1CC[C@H]2[C@@H](C)C(=O)O[C@@H]3O[C@@]4(C)CC[C@@H]1[C@]32OO4 [ARTEMISININ]	Compound metabolized	–	Compound metabolized	Compound metabolized	Compound metabolized	Compound metabolized	Compound metabolized	Compound metabolized	Compound metabolized	–	Compound metabolized	Compound metabolized	Compound metabolized	Compound metabolized	–	Compound metabolized	Compound metabolized	Compound metabolized	Compound metabolized	–
C#C[C@]1(O)CC[C@H]2[C@@H]3CCC4=Cc5oncc5C[C@]4(C)[C@H]3CC[C@@]21C [DANAZOL]	–	Compound metabolized	Compound metabolized	–	Compound metabolized	Compound metabolized	Compound metabolized	–	Compound metabolized	Compound metabolized	–	Compound metabolized	–	–	–	–	Compound NOT metabolized	Compound metabolized	Compound NOT metabolized	–
CC(C)OC(=O)C(C)(C)Oc1ccc(C(=O)c2ccc(Cl)cc2)cc1 [FENOFIBRATE]	Compound NOT metabolized	Compound NOT metabolized	Compound metabolized	Compound metabolized	–	Compound NOT metabolized	Compound metabolized	Compound NOT metabolized	Compound NOT metabolized	Compound metabolized	Compound metabolized	Compound metabolized	Compound NOT metabolized	Compound metabolized	Compound NOT metabolized	Compound metabolized	Compound metabolized	Compound metabolized	Compound metabolized	Compound metabolized
COc1c2occc2cc2ccc(=O)oc12 [METHOXSALEN]	Compound metabolized	Compound NOT metabolized	Compound metabolized	–	–	Compound metabolized	Compound metabolized	Compound metabolized	Compound NOT metabolized	Compound metabolized	Compound metabolized	Compound metabolized	Compound metabolized	Compound metabolized	Compound NOT metabolized	Compound metabolized	Compound NOT metabolized	Compound metabolized	Compound metabolized	Compound metabolized
COc1ccccc1N1CCN(CC(O)COc2cccc3ccccc23)CC1 (configuration not stated) [NAFTOPIDIL]	Compound NOT metabolized	Compound NOT metabolized	Compound NOT metabolized	Compound NOT metabolized	Compound NOT metabolized	Compound metabolized	Compound NOT metabolized	Compound NOT metabolized	Compound metabolized	–	Compound NOT metabolized	–	Compound NOT metabolized	Compound NOT metabolized	Compound NOT metabolized	Compound NOT metabolized	Compound NOT metabolized	Compound NOT metabolized	Compound NOT metabolized	Compound NOT metabolized
Cc1nc2n(c(=O)c1CCN1CCC(c3noc4cc(F)ccc34)CC1)CCCC2O (configuration not stated) [PALIPERIDONE]	Compound metabolized	Compound metabolized	Compound metabolized	Compound metabolized	Compound metabolized	Compound metabolized	Compound metabolized	Compound metabolized	Compound NOT metabolized	–	Compound metabolized	Compound NOT metabolized	Compound metabolized	Compound metabolized	Compound NOT metabolized	Compound NOT metabolized	Compound NOT metabolized	Compound metabolized	Compound NOT metabolized	–
Nc1ccc(/N=N/c2ccccc2)c(N)n1 [PHENAZOPYRIDINE]	Compound metabolized	Compound metabolized	Compound metabolized	Compound metabolized	Compound metabolized	Compound metabolized	Compound metabolized	Compound metabolized	Compound metabolized	Compound metabolized	Compound metabolized	Compound metabolized	Compound metabolized	Compound metabolized	Compound metabolized	Compound metabolized	Compound metabolized	Compound metabolized	–	Compound metabolized
CN(C)CCc1c[nH]c2ccc(Cn3cncn3)cc12.O=C(O)c1ccccc1 [RIZATRIPTAN BENZOATE]	Compound NOT metabolized	Compound NOT metabolized	Compound NOT metabolized	Compound NOT metabolized	Compound NOT metabolized	Compound NOT metabolized	Compound NOT metabolized	–	Compound NOT metabolized	Compound NOT metabolized	Compound NOT metabolized	Compound NOT metabolized	Compound NOT metabolized	Compound NOT metabolized	Compound NOT metabolized	–	Compound NOT metabolized	Compound NOT metabolized	Compound NOT metabolized	Compound NOT metabolized
Cc1ccc(/C(=C\CN2CCCC2)c2ccccn2)cc1 [TRIPROLIDINE]	Compound NOT metabolized	Compound NOT metabolized	Compound NOT metabolized	Compound metabolized	Compound NOT metabolized	Compound NOT metabolized	Compound metabolized	Compound NOT metabolized	Compound NOT metabolized	Compound NOT metabolized	Compound NOT metabolized	Compound NOT metabolized	Compound NOT metabolized	Compound NOT metabolized	Compound NOT metabolized	Compound metabolized	Compound NOT metabolized	Compound NOT metabolized	–	Compound NOT metabolized
